What all share (experiment): NCI anticancer screen, dose series, 48 h
Test [1] deals with U251 CNS.
The test system of test [2] is HOP-92 NSCLC.
The subject of test [3] is UACC-62 melanoma.
The test system of test [4] is MALME-3M melanoma.
Test [5] has as its system UO-31 renal.
For test [6], the system named is OVCAR-4 ovarian.
Test [7] relates to OVCAR-3 ovarian.
Test [8] relates to NCI-H460 lung.

Each structure is given as a SMILES string.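 The compound was tested at five concentrations on cells cultured in 96-well plates, with a 48-hour exposure period. GI50: concentration for 50% inhibition of growth. The concentration for full growth arrest is given as TGI.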

Regarding `CC(=O)OC1C(O[C@H]2CC[C@]34O[C@]35CC[C@]3(C)C(C6(C)CC[C@@H](C(C)(C)O)O6)[C@@H](O)CC3(C)[C@@H]5CC(OC3OC(CO)C(O)C(O)C3O)C4C2(C)C)OCC(O)C1O` (stereo partly specified), the TGI in test [1], in test [2], in test [3], in test [4], in test [5] and in test [6] was over 100 µM throughout. Besides, the TGI in test [7] and in test [8] was over 100 µM in each case.
Take `O=C(/C(=N/Nc1ccccc1)c1ccc([N+](=O)[O-])cc1)c1ccc([N+](=O)[O-])cc1`: the TGI in test [1], in test [2], in test [3], in test [4], in test [5] and in test [6] was over 100 µM in each case. For the same compound, the TGI in test [7] and in test [8] was over 100 µM each time.
On to `N#C/C(=C\c1ccccc1)C(NO)Nc1ccccc1` (stereo unspecified), for which the TGI in test [1], in test [2], in test [3], in test [4], in test [5] and in test [6] was over 100 µM in each case. In addition, the TGI in test [7] and in test [8] was over 100 µM in each case.
For `O=C([CH-]C(=O)c1ccccc1)c1ccccc1.O=C([CH-]C(=O)c1ccccc1)c1ccccc1.O=C([CH-]C(=O)c1ccccc1)c1ccccc1.[Cl-].[Zr+4]`, the GI50 in test [1] was 12.1 µM; in test [2], 8.09 µM; in test [3], 20.3 µM; in test [4], 19.5 µM; in test [6] it was 15.9 µM; in test [7] it was 10.6 µM. For the same compound, in test [8], the GI50 is 10.8 µM. The TGI in test [1] was over 100 µM; in test [2], 36 µM; in test [3], 91.2 µM; in test [4] it was 60.4 µM; in test [6] it was 88.4 µM; in test [7], 39.4 µM. In test [8], the TGI is 53.8 µM.
With `CCC[CH2][Sn]([CH2]CCC)([O]C(=O)c1cccc(F)c1F)[O]C(=O)c1cccc(F)c1F`, the GI50 is 0.675 µM in test [1]; 1.3 µM in test [2]; 1.22 µM in test [3]; 0.585 µM in test [4]; 1.56 µM in test [5]; 1.86 µM in test [6]. Moreover, the GI50 in test [7] is 1.37 µM; in test [8], 1.7 µM. Further, the TGI in test [1] was 1.93 µM; in test [2], 2.57 µM; in test [3], 2.46 µM; in test [4], 1.89 µM; in test [5], 2.92 µM; in test [6], 3.31 µM. The TGI in test [7] was found to be 2.68 µM; in test [8], 3.24 µM.
`CCC(=O)C(C(=O)CC)c1c(OC(=O)c2ccccc2)ccc(O)c1C(=O)OC`: the TGI in test [1], in test [2], in test [3], in test [5], in test [6] and in test [7] was over 100 µM in each case. The TGI in test [8] was over 100 µM.
With `Clc1ccc(OCc2nnc3n2N=C(c2ccccc2)CS3)c(Cl)c1`, the TGI in test [1] was over 100 µM; in test [2], over 100 µM; in test [3], over 100 µM; in test [4] it was over 100 µM; in test [5], 8.46 µM; in test [6] it was over 100 µM. For the same compound, the TGI in test [8] was over 100 µM.
As to `COc1ccc2c(c1)[n+](=O)c(C(=O)CC(=O)C(=O)Nc1cccc(C)c1C)c(C)n2[O-]`, the TGI in test [1], in test [2], in test [3], in test [4], in test [5] and in test [6] was over 100 µM throughout. Moreover, the TGI in test [7] and in test [8] was over 100 µM throughout.
Turning to `O=C1C=C(Nc2ccc(S(=O)(=O)Nc3ncccn3)cc2)c2ccccc2C1=O`, the TGI was found to be 31.5 µM in test [1]; 94 µM in test [2]; 32.9 µM in test [3]; 43.9 µM in test [4]; 57.5 µM in test [5]; 38.8 µM in test [6]. In addition, the values for the TGI in test [7] and in test [8] were 30.5 µM and 42.7 µM, respectively.
Turning to `C/C(CC(=O)Nc1ccc(NC(=O)C/C(C)=N\NC(N)=O)cc1)=N/NC(N)=O`, the TGI in test [1], in test [2], in test [3], in test [4], in test [5] and in test [6] was over 100 µM each time. In addition, the TGI in test [7] and in test [8] was over 100 µM throughout.
For the compound `CCOC(=O)C1=C(C(=O)OCC)C2(c3ccccc3)N(O1)c1ccccc1C2(C)C` (stereo unspecified), the TGI in test [1] is over 100 µM; in test [3], over 100 µM; in test [4] it was over 100 µM; in test [5], 67.1 µM; in test [6] it was 71.8 µM; in test [7], over 100 µM. The compound further displayed a TGI in test [8] of over 100 µM.
Turning to `CCN(CC)c1ccc(N=Nc2ccc(-c3nc4cccn(C)c-4n3)cc2)cc1`, the TGI in test [1] came to 16.3 µM; in test [2], 33 µM; in test [3], 27.1 µM; in test [4], 26.8 µM; in test [5] it was 41 µM; in test [6] it was 31.2 µM. Also, the figures for the TGI in test [7] and in test [8] were 23.1 µM and 17.3 µM, respectively.
Turning to `c1ccc(C2CC(c3ccc4ccccc4c3)=Nc3ccccc3S2)cc1` (stereo unspecified), the TGI in test [1] was determined as 31 µM; in test [3], 35.2 µM; in test [4], 35.8 µM; in test [5], 25.1 µM; in test [6], 37.5 µM; in test [7], 38.7 µM. In addition, in test [8], the TGI was 29.1 µM.
For `Cc1ccccc1N=Nc1c(-c2ccccc2)nn(C(=O)CC(=O)Nc2cccc(Cl)c2)c1-c1ccccc1`, the TGI in test [1] was 19.6 µM; in test [2], over 100 µM; in test [3], over 31.6 µM; in test [4] it was over 100 µM; in test [5] it was over 31.6 µM; in test [6] it was over 31.6 µM. Moreover, the TGI in test [7] and in test [8] was over 31.6 µM throughout.
For `CC1=C(C(=O)Nc2ccccc2)C(c2cc(Cl)cc(Cl)c2)C(C(=O)Nc2ccccc2)=C(C)N1`, the TGI in test [1] amounted to 12.9 µM; in test [3] it was 22.2 µM; in test [4] it was 27.9 µM; in test [5], 26.9 µM; in test [6], 19.2 µM; in test [7] it was 22.1 µM. For the same compound, the TGI in test [8] was determined as 62.8 µM.
Regarding `O=C(N/C(=C/c1cccc([N+](=O)[O-])c1)c1nc2ccc(Cl)cc2[nH]1)c1ccccc1`, the TGI was 25.4 µM in test [1]; 78.4 µM in test [2]; 33.5 µM in test [3]; 36.4 µM in test [4]; 17.2 µM in test [5]; 90.5 µM in test [6]. For the same compound, the TGI amounted to 76.6 µM in test [7] and 51.7 µM in test [8].
As for `c1cc[c]([Sn]([O]c2cccc3cccnc23)([O]c2cccc3cccnc23)[c]2ccccc2)cc1`, the GI50 in test [1] is 0.938 µM; in test [3] it was 0.223 µM; in test [6], 0.214 µM; in test [8], 1.36 µM. For the same compound, the TGI worked out at 2.6 µM in test [1], 0.502 µM in test [3], 0.406 µM in test [6] and 3.66 µM in test [8].
In the case of `C1CC2=C(C1)C1=S(S2)SC2=C1CCC2`, the TGI in test [1], in test [2], in test [3], in test [4], in test [5] and in test [6] was over 100 µM each time. For the same compound, the TGI in test [7] and in test [8] was over 100 µM in each case.
Regarding `COC(=O)N/N=C(\C)C(CN(C)C)C(c1ccccc1)c1c(O)c2ccccc2oc1=O` (stereo unspecified), the TGI in test [1], in test [2], in test [3], in test [4], in test [5] and in test [6] was over 100 µM in each case.
In the case of `O=c1[nH]c(=O)n(C2CC(O)C(CO)O2)cc1COCC(F)(F)F` (stereo unspecified), the TGI in test [1], in test [2], in test [3], in test [4], in test [5] and in test [6] was over 100 µM throughout. In addition, the TGI in test [7] and in test [8] was over 100 µM in each case.
As to `CC1(C)C(=O)C(=Cc2ccco2)C1=O`, the TGI in test [1], in test [2], in test [3], in test [4], in test [5] and in test [6] was over 100 µM each time. The compound further came in with a TGI in test [8] of over 100 µM.
As to `O=c1c2cccnc2ncn1CCCN1CCCC1`, the TGI in test [1], in test [2], in test [3], in test [5], in test [6] and in test [7] was over 100 µM in each case. Also, in test [8], the TGI was over 100 µM.

The values above are taken from PubChem BioAssay (NCI).
